From patent publication US4584382A, “Pyridyl acrylate compound” (priority 1984, dated 1986)

Columns and labels:
[1] = Anticholinergic activity / side effects (statement); conditions: in contrast to the antihistamines in present use
[2] = Sedative effects (statement); assay type: in vivo; conditions: in contrast to the antihistamines in present use
H1 histamine receptor = target: T1, H1 histamine receptor (Cavia porcellus, UniProt P31389); assay: Antihistaminic activity: antagonism of histamine concentration-response curves in isolated guinea-pig ileum longitudinal muscle (Schild plot); assay type: cell-based; conditions: negative log of the antagonist concentration shifting the histamine control curve 2X to the right; one hour incubation; read-out: pA2 (converted)
T1 construct: The longitudinal muscle was isolated from the intact ileum of guinea-pigs; from tissue; host or cells: guinea-pig (Hartley, male) ileum longitudinal muscle
Procedure: The longitudinal muscle was isolated from the intact ileum of guinea-pigs (Hartley, male 250-400 g) and placed in an organ bath under 300 mg tension. After one hour of equilibration, cumulative concentration-response curves (Van Rossum, J. M., Arch. Int. Pharmacodyn. Ther. 143, 299-330, 1963) to histamine were obtained. Following washing, the tissues were incubated for one hour with the test compound and then a second histamine concentration-response curve was run. Shifts to the right of the agonist concentration-response curve produced by the antagonists were used to construct Schild plots (Arunlakshana, O. and Schild, H. O., Br. J. Pharmacol: 14, 48-58, 1959). Regression of Log (dr-1) on Log [B], where dr is an equiactive response in the presence and absence of antagonist and [B] is the molar concentration of antagonist, allowed an estimate of pA2, i.e. the negative log of the concentration of antagonist which shifts the control histamine concentration-response curve 2X to the right.

[3] = Pharmacokinetic studies comparing relative distribution in brain and plasma; assay type: in vivo; conditions: rodents
[4] = test system: H1 histamine receptor sites; assay: Binding to H1 histamine receptor sites (statement); set-up: species or system mammals including humans
[5] = antihistamines now in use; cited from earlier work
[6] = clinical use; cited from earlier work
[7] = human, in vivo; cited from earlier work

T1 sequence (P31389 whole entry): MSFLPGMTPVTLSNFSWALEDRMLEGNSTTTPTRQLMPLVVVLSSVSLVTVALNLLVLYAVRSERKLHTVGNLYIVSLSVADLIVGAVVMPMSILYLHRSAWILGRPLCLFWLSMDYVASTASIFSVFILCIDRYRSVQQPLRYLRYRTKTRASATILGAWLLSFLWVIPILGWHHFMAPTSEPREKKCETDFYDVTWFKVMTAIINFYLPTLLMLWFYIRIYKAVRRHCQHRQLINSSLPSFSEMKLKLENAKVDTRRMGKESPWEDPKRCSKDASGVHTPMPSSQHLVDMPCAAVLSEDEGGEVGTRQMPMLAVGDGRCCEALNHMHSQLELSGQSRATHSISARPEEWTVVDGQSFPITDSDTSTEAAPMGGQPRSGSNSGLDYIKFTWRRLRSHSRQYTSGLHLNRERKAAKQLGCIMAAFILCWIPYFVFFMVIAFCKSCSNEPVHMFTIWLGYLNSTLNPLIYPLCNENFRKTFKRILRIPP

Q: For `O=C(O)/C=C/c1cccc(/C(=C/CN2CCCC2)c2ccc(C(F)(F)F)cc2)n1` [Compound of Formula (I), (E)-3-{6-[3-Pyrrolidino-1(4-Trifluoromethylphenyl)prop-1E-enyl]-2-pyridyl}acrylic acid], which anticholinergic side effects [1] is on record?
A: The anticholinergic side effects was “little or no anticholinergic side effects”.

Q: What about the sedating effect [2] of the same compound?
A: Its sedating effect is “essentially not sedating”.

Q: What about the Kb (H1 histamine receptor) of the same compound?
A: Its Kb is 39.8 pM.

Q: What about the brain penetration [3] of the same compound?
A: Its brain penetration is “does not readily penetrate the brains of rodents”.

Q: And the “binding to H1 histamine receptor sites” value [4]?
A: Its value is “binds competitively to the H1 histamine receptor sites”.

Q: Which anticholinergic activity [5] does the source give for `CC(CN1c2ccccc2Sc2ccccc21)N(C)C` (centres unmarked) [promethazine] here?
A: Its anticholinergic activity is “varying degrees of anticholinergic activity”.

Q: What does the source list for `Cc1ccc(/C(=C\CN2CCCC2)c2ccccn2)cc1` [Triprolidine, (E)-1-(4-methylphenyl)-1-(2-pyridyl)-3-pyrrolidinoprop-1-ene]?
A: Kb (H1 histamine receptor): 79.4 pM; antihistamine potency [6]: one of the most potent antihistamines available; anticholinergic activity [5]: varying degrees of anticholinergic activity; sedation and drowsiness [7]: produces sedation and drowsiness in varying degrees in most patients

Q: Which anticholinergic activity [5] does the source give for `COc1ccc(CN(CCN(C)C)c2ccccn2)cc1` [pyrilamine] here?
A: The anticholinergic activity was “varying degrees of anticholinergic activity”.
